Experimental findings from patent US10562912B2 (C&C Research Laboratories, priority 2013, dated 2020) are described below.

What all share (format): cell-based
The subject of one assay is DU-145. The assay can be described thus: Cell growth inhibition assay, prostate cancer cell line DU-145. The conditions noted are these: Homo sapiens, DU-145 prostate cancer cell line. The gist of the method:
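Readout was CellTiter-Glo luminescence after 72–96 h of compound exposure at 37 °C, 5% CO2. Plating density was 3,000 cells/well for DU-145 and HCT116 and 5,000 cells/well for SW626. Controls were 0.1% DMSO wells and medium-only wells.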

Another assay concerns the target T1, STAT3 (Homo sapiens, UniProt P40763).
T1 construct: plasmid pSTAT3-TA-luc), which contains a stably operating STAT3 promoter; endogenous in cells
The assay can be described thus: STAT3 reporter gene assay (luciferase), LNCaP stable cell line (pSTAT3-TA-luc), IL-6 stimulation. The gist of the method: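 Cytotoxicity was run on a duplicate plate with CellTiter-Glo, while the other plate gave luciferase read-outs from lysed LNCaP pSTAT3-TA-luc reporter cells. Cells were treated with graded compound concentrations plus IL-6 (10 ng/mL final) for 24–48 h in 3% DCC-FBS medium. Unstimulated and stimulated wells served as negative and positive controls.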
For orientation: Reporter assays use an easily measured gene product as a stand-in for the process of interest.

In another assay the test system is LNCaP. The assay can be described thus: Cell growth inhibition assay, prostate cancer cell line LNCaP (medium with 10 ng/mL IL-6). To be noted: Homo sapiens, medium supplemented with 10 ng/mL of IL-6, 10,000 cells/well.

As usually defined, the IC50 is the concentration that inhibits the measured activity by half.

T1 sequence (P40763 whole entry): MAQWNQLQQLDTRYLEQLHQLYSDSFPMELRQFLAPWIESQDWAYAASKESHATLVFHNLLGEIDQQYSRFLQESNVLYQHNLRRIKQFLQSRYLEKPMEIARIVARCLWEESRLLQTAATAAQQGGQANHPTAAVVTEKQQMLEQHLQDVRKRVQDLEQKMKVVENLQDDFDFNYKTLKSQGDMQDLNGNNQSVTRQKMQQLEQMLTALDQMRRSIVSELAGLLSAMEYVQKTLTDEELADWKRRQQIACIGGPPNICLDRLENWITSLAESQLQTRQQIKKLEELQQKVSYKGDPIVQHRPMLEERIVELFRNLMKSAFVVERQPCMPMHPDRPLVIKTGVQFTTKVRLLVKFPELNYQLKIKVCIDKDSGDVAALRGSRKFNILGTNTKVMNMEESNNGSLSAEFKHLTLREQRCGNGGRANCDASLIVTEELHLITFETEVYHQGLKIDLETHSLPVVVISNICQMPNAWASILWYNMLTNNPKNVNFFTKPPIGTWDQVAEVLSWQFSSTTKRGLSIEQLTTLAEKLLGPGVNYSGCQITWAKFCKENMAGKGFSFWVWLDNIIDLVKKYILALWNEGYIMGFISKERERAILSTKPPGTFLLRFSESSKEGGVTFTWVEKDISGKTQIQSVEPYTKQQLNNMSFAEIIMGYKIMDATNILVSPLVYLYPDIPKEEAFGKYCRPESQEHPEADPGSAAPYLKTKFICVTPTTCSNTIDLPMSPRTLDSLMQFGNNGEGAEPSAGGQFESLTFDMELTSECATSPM

On to `CC(C)(c1cc(Cl)cc(NC(=O)c2cc3cc(NS(C)(=O)=O)c(Cl)cc3s2)c1)c1ccc(C#N)s1` [Example 186, 6-chloro-N-(3-chloro-5-(2-(5-cyanothiophen-2-yl)propan-2-yl)phenyl)-5-(methylsulfonamido)benzo[b]thiophene-2-carboxamide], for which the IC50 is 0.023 µM in the assay with DU-145, 0.1 µM against STAT3 and 0.039 µM in the assay with LNCaP.
The like results for `CCn1cccc1C(C)(C)c1cc(Cl)cc(NC(=O)c2cc3cc(NS(C)(=O)=O)ccc3s2)c1` [Example 187, N-(3-chloro-5-(2-(1-ethyl-1H-pyrrol-2-yl)propan-2-yl)phenyl)-5-(methylsulfonamido)benzo[b]thiophene-2-carboxamide] were, in that order, 0.042 µM, 0.11 µM and 0.1 µM.
The like results for `CC(C)(c1ccc(Cl)cc1)c1cc(Cl)cc(NC(=O)c2cc3cc(NS(=O)(=O)CCO)c(Cl)cc3s2)c1` [Example 188, 6-chloro-N-(3-chloro-5-(2-(4-chlorophenyl)propan-2-yl)phenyl)-5-((2-hydroxyethyl)sulfonamido)benzo[b]thiophene-2-carboxamide] were, in that order, 0.026 µM, 0.054 µM and 0.056 µM.
The like results for `CC(C)(c1ccncc1)c1cc(Cl)cc(NC(=O)c2cc3cc(NS(C)(=O)=O)ccc3s2)c1` [Example 191, N-(3-chloro-5-(2-(pyridin-4-yl)propan-2-yl)phenyl)-5-(methylsulfonamido)benzo[b]thiophene-2-carboxamide] were, in that order, 0.74 µM, 0.54 µM and 2.2 µM.
As to `CC(C)Oc1cc(OC(F)(F)F)cc(C(C)(C)c2cc(Cl)cc(NC(=O)c3cc4cc(OP(=O)(O)O)ccc4s3)c2)c1` [Example 193, 2-((3-chloro-5-(2-(3-isopropoxy-5-(trifluoromethoxy)phenyl)propan-2-yl)phenyl)carbamoyl)benzo[b]thiophen-5-yl dihydrogen phosphate], the IC50 is 0.39 µM with DU-145, 0.38 µM on STAT3 and 0.99 µM with LNCaP.
The like results for `CC(C)Oc1cc(OC(F)(F)F)cc(C(C)(C)c2cc(Cl)cc(NC(=O)c3cc4cc(NS(=O)(=O)CC5CCCO5)ccc4s3)c2)c1` (stereo not drawn) [Example 197, N-(3-chloro-5-(2-(3-isopropoxy-5-(trifluoromethoxy)phenyl)propan-2-yl)phenyl)-5-(((tetrahydrofuran-2-yl)methyl)sulfonamido)benzo[b]thiophene-2-carboxamide] were, in that order, 0.016 µM, 0.012 µM and 0.065 µM.
Turning to `CC(C)Oc1cc(OC(F)(F)F)cc(C(C)(C)c2cc(Cl)cc(NC(=O)c3cc4cc(NS(=O)(=O)CC5CCOCC5)ccc4s3)c2)c1` [Example 198, N-(3-chloro-5-(2-(3-isopropoxy-5-(trifluoromethoxy)phenyl)propan-2-yl)phenyl)-5-(((tetrahydro-2H-pyran-4-yl)methyl)sulfonamido)benzo[b]thiophene-2-carboxamide], the IC50 stood at 0.017 µM with DU-145, 0.03 µM against STAT3 and 0.046 µM with LNCaP.
The like results for `CC(C)Oc1cc(OC(F)(F)F)cc(C(C)(C)c2cc(I)cc(NC(=O)c3cc4cc(NS(C)(=O)=O)ccc4s3)c2)c1` [Example 213, N-(3-iodo-5-(2-(3-isopropoxy-5-(trifluoromethoxy)phenyl)propan-2-yl)phenyl)-5-(methylsulfonamido)benzo[b]thiophene-2-carboxamide] were, in that order, 0.011 µM, 0.018 µM and 0.025 µM.
On the same counts, the results for `CN(c1ccc2sc(C(=O)Nc3cc(Cl)cc(Oc4ccc(Cl)cc4)c3)cc2c1)S(C)(=O)=O` [Example 220, N-(3-chloro-5-(4-chlorophenoxy)phenyl)-5-(N-methylmethylsulfonamido)benzo[b]thiophene-2-carboxamide] are 0.007 µM, 0.012 µM and 0.013 µM.
Consider `CN(c1ccc2sc(C(=O)Nc3cc(Cl)cc(C(C)(C)c4ccc(Cl)cc4)c3)cc2c1)S(C)(=O)=O` [Example 221, N-(3-chloro-5-(2-(4-chlorophenyl)propan-2-yl)phenyl)-5-(N-methylmethylsulfonamido)benzo[b]thiophene-2-carboxamide], for which the IC50 turned out to be 0.008 µM with DU-145, 0.011 µM against STAT3 and 0.011 µM with LNCaP.
For `CC(C)Oc1cc(OC(F)(F)F)cc(C(C)(C)c2cc(Cl)cc(NC(=O)C3=Cc4cc(NS(C)(=O)=O)ccc4S3(=O)=O)c2)c1` [Example 222, N-(3-chloro-5-(2-(3-isopropoxy-5-(trifluoromethoxy)phenyl)propan-2-yl)phenyl)-5-(methylsulfonamido)benzo[b]thiophene-2-carboxamide 1,1-dioxide], the IC50 in the assay on DU-145 is > 1.1 µM; on STAT3, 6.1 µM; in the assay with LNCaP, > 1.1 µM.
On to `CC(C)Oc1cc(OC(F)(F)F)cc(C(C)(C)c2cc(Cl)cc(NC(=O)c3cc4cc(NS(C)(=O)=O)ccc4[s+]3[O-])c2)c1` (stereo not drawn) [Example 223, N-(3-chloro-5-(2-(3-isopropoxy-5-(trifluoromethoxy)phenyl)propan-2-yl)phenyl)-5-(methylsulfonamido)benzo[b]thiophene-2-carboxamide 1-oxide], for which the IC50 in the assay with DU-145 is 0.005 µM; against STAT3 it was 0.24 µM; with LNCaP, 0.17 µM.
On the same counts, the results for `CS(=O)(=O)Nc1ccc2sc(C(=O)Nc3cc(Cl)cc(-c4ccc(F)cc4F)n3)cc2c1` [Example 331, N-(4-chloro-6-(2,4-difluorophenyl)pyridin-2-yl)-5-(methylsulfonamido)benzo[b]thiophene-2-carboxamide] are 0.034 µM, 0.051 µM and 0.15 µM.
On the same counts, the results for `CS(=O)(=O)Nc1ccc2sc(C(=O)Nc3cc(Cl)cc(-c4ccsc4)c3)cc2c1` [Example 332, N-(3-chloro-5-(thiophen-3-yl)phenyl)-5-(methylsulfonamido)benzo[b]thiophene-2-carboxamide] are 0.042 µM, 0.061 µM and 0.17 µM.
As for `CS(=O)(=O)Nc1cc2cc(C(=O)Nc3cc(Cl)cc(-c4ccc(F)cc4F)c3)sc2cc1Cl` [Example 333, 6-chloro-N-(5-chloro-2′,4′-difluoro-[1,1′-biphenyl]-3-yl)-5-(methylsulfonamido)benzo[b]thiophene-2-carboxamide], the results for the IC50 with DU-145, at STAT3 and with LNCaP were 0.004 µM, 0.016 µM and 0.015 µM, respectively.
On to `Cn1cccc1-c1cc(Cl)cc(NC(=O)c2cc3cc(NS(C)(=O)=O)ccc3s2)c1` [Example 334, N-(3-chloro-5-(1-methyl-1H-pyrrol-2-yl)phenyl)-5-(methylsulfonamido)benzo[b]thiophene-2-carboxamide], for which the IC50 was 0.059 µM in the assay on DU-145, 0.096 µM on STAT3 and 0.14 µM in the assay on LNCaP.
On the same counts, the results for `CS(=O)(=O)Nc1ccc2sc(C(=O)Nc3cc(Cl)cc(-c4ccc(F)cc4F)c3)c(O)c2c1` [Example 335, N-(5-chloro-2′,4′-difluoro-[1,1′-biphenyl]-3-yl)-3-hydroxy-5-(methylsulfonamido)benzo[b]thiophene-2-carboxamide] are > 1.1 µM, 5.7 µM and > 1.1 µM.
For the molecule `CS(=O)(=O)Nc1ccc2sc(C(=O)Nc3cc(Cl)cc(-c4cccs4)c3)cc2c1` [Example 336, N-(3-chloro-5-(thiophen-2-yl)phenyl)-5-(methylsulfonamido)benzo[b]thiophene-2-carboxamide], the IC50 in the assay on DU-145 stood at 0.065 µM; on STAT3 it was 0.13 µM; in the assay with LNCaP it was 0.21 µM.
On the same counts, the results for `CS(=O)(=O)Nc1ccc2sc(C(=O)Nc3cc(-c4ccc(F)cc4F)cc(Cl)n3)cc2c1` [Example 337, N-(6-chloro-4-(2,4-difluorophenyl)pyridin-2-yl)-5-(methylsulfonamido)benzo[b]thiophene-2-carboxamide] are 0.43 µM, 0.27 µM and 0.94 µM.
Regarding `CS(=O)(=O)Nc1ccc2sc(C(=O)Nc3cc(Cl)cc(-c4cnccn4)c3)cc2c1` [Example 338, N-(3-chloro-5-(pyrazin-2-yl)phenyl)-5-(methylsulfonamido)benzo[b]thiophene-2-carboxamide], the IC50 was 0.43 µM in the assay with DU-145, 0.92 µM on STAT3 and > 1.1 µM with LNCaP.
On the same counts, the results for `CS(=O)(=O)Nc1ccc2sc(C(=O)Nc3cc(Cl)cc(-c4cncc(Cl)n4)c3)cc2c1` [Example 339, N-(3-chloro-5-(6-chloropyrazin-2-yl)phenyl)-5-(methylsulfonamido)benzo[b]thiophene-2-carboxamide] are 0.31 µM, 0.76 µM and 0.56 µM.
Consider `Cn1cncc1-c1cc(Cl)cc(NC(=O)c2cc3cc(NS(C)(=O)=O)ccc3s2)c1` [Example 340, N-(3-chloro-5-(1-methyl-1H-imidazol-5-yl)phenyl)-5-(methylsulfonamido)benzo[b]thiophene-2-carboxamide], for which the IC50 was > 1.1 µM with DU-145, > 10 µM at STAT3 and > 1.1 µM in the assay on LNCaP.
`CS(=O)(=O)Nc1ccc2sc(C(=O)Nc3cc(Cl)cc(C4(c5ccc(Cl)cc5)CC4)c3)cc2c1` [Example 432, N-(3-chloro-5-(1-(4-chlorophenyl)cyclopropyl)phenyl)-5-(methylsulfonamido)benzo[b]thiophene-2-carboxamide]: the values for the IC50 in the assay on DU-145, against STAT3 and in the assay with LNCaP were 0.06 µM, 0.049 µM and 0.073 µM, respectively.
